Results as given in patent US8993595B2, “Macrocyclic serine protease inhibitors” (priority 2009, dated 2015).
Read-outs that look alike come from different tables or passages of the source.

Assays:
[1] = human, in vivo
[2] = test system: D-1a cell line (genotype 1a replicon selected with 25 nM, D168A); assay: Extent of resistance after selection, D-1a; assay type: cell-based, HCV; conditions: selecting conc. 25 nM
Description: (§1) Replicon cells (genotype 1a or 1b) were treated with various concentrations of compound 52 in the presence of G418. Treatment-emergent genotypic changes were identified by population sequencing of NS3 (both protease and helicase regions). The activity of compound 52 and other compounds was evaluated by NS5A western blot after selection or luciferase assay during and after selection.

in vitro [3] = assay type: cell-based; conditions: human; GS4.1 cells, Cell Titer 96 AQueous One Solution
Description: For cytotoxicity evaluation, GS4.1 cells were treated with compounds as described above and cellular viability was monitored using the Cell Titer 96 AQueous One Solution Cell Proliferation Assay (Promega). CC50 values were determined from the % cytotoxicity versus concentration data with Tecan Magellan software as described above.

[4] = test system: Zluc cell line (genotype 1b replicon with luciferase, unselected); assay: Extent of resistance after selection, luciferase assay, Zluc; assay type: cell-based, HCV; conditions: selecting conc. 0 nM, EC50 resistant / EC50 wild-type
Description: as §1

[5] = target: T1, HCV NS3-4A Protease Genotype 1a (Hepatitis C virus genotype 1a, UniProt P27958); assay: HCV protease assay, recombinant NS3-4A genotype 1a; assay type: biochemical; conditions: mean ± SD, 3 experiments
T1 construct: recombinant HCV NS3-4A proteases
Description: (§2) The compounds were tested at a variety of concentrations in assay buffer containing a final DMSO concentration of 5%. Reactions were allowed to proceed for 60 min at room temperature and fluorescence measurements were recorded with a Tecan Infinity Spectrofluorimeter. The IC50 values were determined from the percent inhibition versus concentration data using a sigmoidal non-linear regression analysis based on four parameters with Tecan Magellan software.
(§3) Compound 52 was tested against genotypes 1a, 1b, 2a, 3a, and 4a of recombinant HCV NS3-4A proteases, along with other cellular proteases.

[6] = test system: ZlucA cell line (genotype 1b replicon selected with 10 nM compound 52, D168V); assay: Extent of resistance after selection, luciferase assay, ZlucA; assay type: cell-based, HCV; conditions: selecting conc. 10 nM, EC50 resistant / EC50 wild-type
Description: as §1
(§4) Eight drug-resistance replicon cell lines were created by long-term culture of genotype 1b replicon cells with 10 or 25 nM of compound 52. NS3 (AAs 1-631) was sequenced at each passage.

[7] = target: T2, HCV NS3-4A Protease Genotype 4a (Hepatitis C virus genotype 4a, UniProt O39929); assay: HCV protease assay, recombinant NS3-4A genotype 4a; assay type: biochemical; conditions: mean ± SD, 3 experiments
T2 construct: recombinant HCV NS3-4A proteases
Description: as §2, §3

[8] = 400 mg per day
[9] = monkey plasma
in vitro [10] = assay type: cell-based; conditions: 48 hrs, intracellular ATP
Description: Freshly isolated hepatocytes were incubated with various concentrations of […] for 48 hrs. Intracellular ATP content was measured (CellTiter-Glo luminescent cell viability assay) to determine cell cytotoxicity (CC50).

[11] = test system: human peripheral blood lymphocytes; assay type: cell-based; conditions: up to 84 μg/mL, with and without S9
Description: The potential for compound 52 to induce mutations in a bacterial system (S. typhimurium and E. coli—at concentrations up to 5,000 μg/plate), to induce chromosomal aberrations in cultures of human peripheral blood lymphocytes (at concentrations up to 84 μg/mL), and to induce clastogenic and/or aneugenic activity in CD-1 mice (at oral doses up to 2,000 mg/kg) was evaluated. The two in vitro studies were performed with and without the addition of a mammalian metabolic activation system (rat liver S9 subcellular fraction).

[12] = test system: replicon bearing NS5B Mutation C445Y
Description: (§5) The activity of compound 52 was evaluated against replicons bearing single protease inhibitor-resistance mutations as compared to its activity against the wild-type replicon. Mutations were introduced into a genotype 1b luciferase-replicon by site-directed mutagenesis. Compound activity was measured in cells transiently transfected with in vitro transcribed wild-type or mutant luciferase-replicon RNA by luciferase assay after 4-day treatment. Replication capacity was determined in untreated transfected cells by comparing the luciferase activity at 4 hrs and 4 days post-transfection.
(§6) The activity of compound 52 was also tested against replicons bearing a single polymerase inhibitor-resistance mutation. Each mutation confers resistance to a known polymerase inhibitor as reported in the literature.

[13] = test system: replicon bearing NS5B Mutation M414T
Description: as §5, §6

[14] = test system: replicon bearing NS5B Mutation Y448H
Description: as §5, §6

[15] = test system: replicon bearing NS5B Mutation M423T
Description: as §5, §6

[16] = test system: replicon bearing NS5B Mutation C316Y
Description: as §5, §6

[17] = test system: replicon bearing NS5B Mutation S282T
Description: as §5, §6

[18] = test system: replicon bearing NS5B Mutation C445F
Description: as §5, §6

[19] = test system: genotype 1b replicon cells; assay: Selection of drug-resistant genotype 1b replicon cell lines; assay type: cell-based, HCV; conditions: all eight selected genotype 1b cell lines
Description: as §1, §4

human CYP450 2C9 = target: T3, human CYP450 2C9 (Homo sapiens, UniProt P11712); assay: CYP450 inhibition assay, 2C9; assay type: in vitro ADME
T3 construct: purchased BD Bioscience
Description: Compound 52 was incubated with human CYP450 cDNA-expressed isoenzymes according to the protocol (BD Bioscience). For CYP2C9, a luminogenic substrate was used with the P450-Glo™ kit. In addition, the effect of the compound on CYP2C9-mediated diclofenac metabolism was measured by LC-UV. The potential inhibitory effect of the compound on human UGT1A1 was examined using human liver microsomes and bilirubin as substrate. The metabolites (mono- and di-glucuronidated bilirubin) were measured by LC-UV.

COc1ccc2c(O[C@H]3CCN4C(=O)N(C)CCCC/C=C\[C@@H]5C[C@@]5(C(=O)NS(=O)(=O)C5(C)CC5)NC(=O)[C@@H]4C3)cc(-c3nc(C(F)(F)F)cs3)nc2c1C [Compound 52, 1-methyl-cyclopropanesulfonic acid{(Z)-(1S,4R,6S,18S)-18-[7-methoxy-8-methyl-2-(4-trifluoromethyl-thiazol-2-yl)-quinolin-4-yloxy]-13-methyl-2,14-dioxo-3,13,15-triaza-tricyclo[13.4.0.0*4,6*]nonadec-7-ene-4-carbonyl}amide]
C24 hr [1]: 8 ± 5 ng/mL
Fold-Change [2]: >2750
CC50 (in vitro [3]): 10 to 75 µM
Fold-Change [4]: 1
IC50 [5]: 0.0011 ± 0.0001 µM
Fold-Change [6]: 250 ± 66
IC50 [7]: 0.00081 ± 3e-05 µM
C24 hr ([8]; PK Day 1): 117 ± 53 ng/mL
C24 hr ([8]; PK Day 2): 165 ± 87 ng/mL
C24 hr ([8]; PK Day 3): 197 ± 112 ng/mL
protein bound in plasma [9]: 99.9%
CC50 (in vitro [10]; fresh human hepatocytes): > 10 µM
CC50 (in vitro [10]; fresh monkey hepatocytes): > 10 µM
CC50 (in vitro [10]; fresh mouse hepatocytes): > 10 µM
CC50 (in vitro [10]; fresh rat hepatocytes): > 10 µM
genotoxicity, human lymphocyte chromosomal aberration test [11]: no genotoxicity
Fold-Change [12]: 0.9 ± 0.07
Fold-Change [13]: 1.6 ± 0.5
Fold-Change [14]: 1.7 ± 0.4
Fold-Change [15]: 0.9 ± 0.08
Fold-Change [16]: 1.7 ± 0.6
Fold-Change [17]: 1.4 ± 0.6
Fold-Change [18]: 0.9 ± 0.07
fold-change values (resistance) [19]: no less than 250
IC50 (human CYP450 2C9): ≥ 10 µM
